Reference: patent US10272117B2, “Methods of using an activator of cereblon for neural cell expansion and the treatment of central nervous system disorders” (Celgene Corporation, priority 2014, dated 2019)
Peptide text beside a SMILES is read from it. * marks the point of attachment. Cbz = O=C(OCc1ccccc1)*

What was measured:
[1] = test system: zebrafish embryos; assay: Quantitative PCR of gene expression in zebrafish embryos; type: in vivo; conditions: 11 hpf
Procedure: BRD7-knockdown zebrafish embryos show similar phenotypes as CRBN-overexpressing zebrafish embryos. For example, expression of HuC in untreated, CRBN-overexpressing, and BRD7-knockdown zebrafish embryos was compared by quantitative PCR. Quantitative PCR was performed as follows: 1.7 μg of random […] and oligo-dT primed cDNA synthesized by ReverTra Ace qPCR RT Kit (TOYOBO, Japan) (as template) were used for reverse transcription by THUNDERBIRD™ SYBR® qPCR Mix (Toyobo, Japan). 0.25 mM of each forward and reverse primers were used in the reaction, wherein the sequence of the forward primer was 5′-[…]-3′ (SEQ ID NO: 9); and the sequence of the reverse primer was 5′-[…]-3′ (SEQ ID NO: 10).
Expression of Pou5f1 (Oct3/4), c-Myc, Sox2, and Nanog in zebrafish embryos was analyzed by quantitative PCR. Quantitative RT (qRT)-PCR was performed as follows: 1.7 μg of random hexamer and oligo-dT primed cDNA synthesized by ReverTra Ace qPCR RT Kit (TOYOBO, Japan) (as template) were used for reverse transcription by THUNDERBIRD™ SYBR® qPCR Mix (Toyobo, Japan). 0.25 mM of each forward and reverse primers was used in the reaction. The sequences of primers for c-Myc are as follows: forward primer is 5′-[…]-3′ (SEQ ID NO: 15), and reverse primer is 5′-GTAAAACGACGGCCAGT-3′ (SEQ ID NO: 16). The sequences of primers for sox2 are as follows: forward primer is 5′-ACCCCGGAGGAAAACCAA-3′ (SEQ ID NO: 17), and reverse primer is 5′-CCCGGCAGGGTGTACTTG-3′ (SEQ ID NO: 18). The sequences of primers for nanog are as follows: forward primer is 5′-TACCCAACACACCAGCTTC-3′ (SEQ ID NO: 19), and reverse primer is 5′-GAAGGGTGTTTTTGGAGGA-3′ (SEQ ID NO: 20).
Expression of a pool of three genes, Ascl1, Brn2 (Pou3f2), and Myt1la, is sufficient to directly reprogram embryonic and postnatal fibroblasts into functional neurons. See, e.g., Vierbuchen and Wernig, Nat Biotechnol. 29:892-907 […]. […] Primer sequences for amplification for Ascl1a are as follows: forward primer is 5′-ACGAGCATGACGCCGTA-3′ (SEQ ID NO: 21), and reverse primer is 5′-[…]-3′ (SEQ ID NO: 22). Primer sequences for amplification for Pou3f2b are as follows: forward primer is 5′-[…]-3′ (SEQ ID NO: 23), and reverse primer is 5′-[…]-3′(SEQ ID NO: 24). Primer sequences for amplification for Myt1la are as follows: forward primer is 5′-[…]-3′ (SEQ ID NO: 25), and reverse primer is 5′-[…]-3′ (SEQ ID NO: 26). FIG. […]
Notch3 and Neuropilin2b (Nrp2b) are required for cell proliferation progression. Notch3 regulates the timing of neural differentiation from undifferentiated or immature cells, and Nrp2b regulates cell proliferation and remodeling in mesenchymal stem cells by cooperating with PDGF (platelet-derived growth factor). Therefore, expression of Notch3 and Neuropilin 2b (Nrp2b) was analyzed in untreated and CRBN-overexpressing zebrafish embryos by quantitative PCR. The primers used for Notch3 are as follows: the sequence for forward primer is 5′-[…]-3′ (SEQ ID NO: 27), and the sequence for reverse primer is 5′-[…]-3′ (SEQ ID NO: 28). The primers used for Nrp2b are as follows: the sequence of forward primer is 5′-[…]-3′ (SEQ ID NO: 29), and the sequence of reverse primer is 5′-[…]-3′ (SEQ ID NO: 30). FIG. 29A is a histogram showing the mRNA level of Notch3 and Nrp2b in untreated, CRBN-overexpressing, and thalidomide-treated zebrafish embryos at 11 hpf by quantitative PCR. As shown, expression of Notch3 in the CRBN-overexpressing embryos increased to 1.8-fold of the level in the untreated embryos at 11 hpf, and expression of Nrp2b in the CRBN-overexpressing embryos increased to 2.7-fold of the level in the untreated embryos at the same stage.
Elval3 (Huc) is a neural progenitor marker. Expression of Elavl3 (Huc) was also analyzed by quantitative PCR and in situ hybridization. […]

[2] = test system: zebrafish; assay: Resistance to thalidomide in brain development (brain thickness to body length); type: in vivo; conditions: BRD7-knockdown larvae, 400 μM thalidomide
Procedure: To analyze the functional relationship between thalidomide and BRD7, brain development of BRD7-knockdown zebrafish treated with thalidomide was examined and compared with that of normal zebrafish treated with thalidomide. […] FIGS. 12A and 12B show the normal zebrafish treated with 400 μM thalidomide. FIGS. 12C and 12D show the BRD7-knockdown zebrafish treated with 400 μM thalidomide. FIGS. 12A′ and 12C′ show the brain regions of the normal zebrafish treated with 400 μM thalidomide. FIGS. 12B′ and 12D′ show the brain regions of the BRD7-knockdown zebrafish treated with 400 μM thalidomide. […] The percentages of brain thickness to body length in the normal and the BRD7-knockdown zebrafish, with or without thalidomide treatments were also measured. […] The brain size of the BRD7-knockdown larvae incubated in thalidomide is 98.8% of that of the BRD7-knockdown larvae incubated in the absence of thalidomide.

[3] = test system: CRBN; assay: Detection of the CRBN ubiquitin ligase activity using live cells; type: cell-based; conditions: mammalian cells expressing FLAG-CRBN, immunoblotting
Procedure: This process was carried out basically in accordance with the method of Ohtake et al. See Ohtake et al., Nature, 446:562-566 (2007). MG132, which was a proteasome inhibitor, was applied to mammalian cells expressing CRBN fused with a FLAG epitope tag, and the cells were left still. Subsequently, the cells were disrupted, and from the resulting cell lysate solution, FLAG was purified, and CRBN was extracted. Then immunoblotting was performed under similar, but stricter, conditions to the above, whereby self-ubiquitination was detected and measured.

[4] = fold of level in untreated embryos

SMILES: O=C1CCC(N2C(=O)c3ccccc3C2=O)C(=O)N1 (stereo not shown) [thalidomide, reference compound]
- expression of Nanog (change) ([1]; FIG. 13): decreased
- expression of Pou5f1 (change) ([1]; FIG. 13): decreased
- expression of Zic3 (change) ([1]; FIG. 13): decreased
- Notch3 mRNA expression [1, 4]: 0.3 fold
- Nrp2b mRNA expression [1, 4]: 0.4 fold
- brain size of BRD7-knockdown larvae incubated in thalidomide relative to absence of thalidomide [2]: 98.8%

SMILES: CC(C)C[C@@H](C=O)NC(=O)[C@H](CC(C)C)NC(=O)[C@H](CC(C)C)NC(=O)OCc1ccccc1 [MG132] (Cbz-Leu-Leu-Leu-aldehyde)
- bands representing CRBN-containing (self-ubiquitinated) proteins [3]: a number of bands representing CRBN-containing proteins were detected
